Values of other authors, collected in patent US8791127B2, “Mucosal bioadhesive slow release carrier for delivering active principles” (BioAlliance Pharma, priority 2006, dated 2014).
≈ marks a conversion by molar mass, not a printed value.

Test system: HSV-1 virus
Conditions: towards HSV-1 virus

## Nc1nc2c(ncn2COCCO)c(=O)[nH]1 [acyclovir]
  minimal inhibitory concentration (MIC): 0.0225 mg/L (≈ 0.0999 µM)
